How the values were obtained:
[1] = target: cyclic nucleotide phosphodiesterase 4 from guinea-pig hearts; assay: Inhibition of cyclic nucleotide phosphodiesterase 4 (96-well microtiter plates, Verghese et al.); format: biochemical; conditions: PDE 4 from guinea-pig hearts; read-out: PDE4 IC50
Procedure: The inhibition of cyclic nucleotide phosphodiesterase 4 from guinea-pig hearts was performed using 96-well microtiter plates as described by Verghese et al., (Molecular Pharmacology, 47, 1164-1171 (1995)).

Row | Structure (SMILES) | IC50 [1] [µM] | melting point [°C]
1 | c1ccc(-c2nn3c(C4CC4)nnc3c3cccnc23)cc1 [Compound 12, 3-cyclopropyl-6-phenyl-1,2,4-triazolo[4,3-b]pyrido[3,2-d]pyridazine] | 3 | 244.3
2 | Clc1cccc(-c2nn3c(CC4CCC4)nnc3c3cccnc23)c1 [Compound 61] | 2 | 156
3 | Fc1cccc(-c2nn3c(CC4CCCC4)nnc3c3cccnc23)c1 [Compound 47] | 0.7 | 145
4 | CCCCc1nnc2c3cccnc3c(-c3ccccc3)nn12 [Compound 6] | 2 | 162.9
5 | CC(C)(C)c1nnc2c3cccnc3c(-c3ccccc3)nn12 [Compound 8, 3-t-butyl-6-phenyl-1,2,4-triazolo[4,3-b]pyrido[3,2-d]pyridazine] | – | 188.1
6 | CC(C)Cc1nnc2c3ccccc3c(-c3ccccc3)nn12 [Compound A, 3-isobutyl-6-phenyl-1,2,4-triazolo[3,4-a]phthalazine, reference compound] | 10 | –
7 | O=[N+]([O-])c1cccc(-c2nn3c(CC4CC4)nnc3c3cccnc23)c1 [Compound 112, 3-cyclopropylmethyl-6-(3-nitrophenyl)-1,2,4-triazolo[4,3-b]pyrido[3,2-d]pyridazine] | 0.7 | 164

More lines, in order of falling IC50 [1], values ahead:

Row | IC50 [1] [µM] | melting point [°C] | Structure (SMILES)
8 | 0.3 | 179.7 | CC(C)Cc1nnc2c3cccnc3c(-c3ccccc3)nn12 [Compound 7]
9 | 0.2 | 135 | CC(C)Cc1nnc2c3cccnc3c(-c3ccc(F)cc3)nn12 [Compound 31, 6-(4-fluorophenyl)-3-isobutyl-1,2,4-triazolo[4,3-b]pyrido[3,2-d]pyridazine]
10 | 0.2 | 150 | O=[N+]([O-])c1cccc(-c2nn3c(CC4CCC4)nnc3c3cccnc23)c1 [Compound 113, 3-cyclobutylmethyl-6-(3-nitrophenyl)-1,2,4-triazolo[4,3-b]pyrido[3,2-d]pyridazine]
11 | 0.2 | 113 | CC(C)Cc1nnc2c3cccnc3c(-c3cccc(Cl)c3)nn12 [Compound 55]
12 | 0.1 | 136 | Clc1cccc(-c2nn3c(CC4CC4)nnc3c3cccnc23)c1 [Compound 60]
13 | 0.04 | 178 | CC(C)Cc1nnc2c3cccnc3c(-c3cccc([N+](=O)[O-])c3)nn12 [Compound 109]

— patent US6407108B1, “1,2,4-triazolo(4,3-b)pyrido(3,2-d)pyridazine derivatives and pharmaceutical compositions containing them” (Almirall Prodesfarma, S.A., priority 1997, dated 2002)
